In experiment [1] the test system is A/Parma/24/09 H1N1 oseltamivir-resistant virus. The settings on record: reference peptides; ref Scala et al. (2017) [14]; read-out: HI Titer (IC50) A/Parma/24/09 H1N1; cited from earlier work.
For experiment [2] the test system is unchanged.
The mark [3] stands for this setting: A/Parma/24/09 oseltamivir-resistant virus, 1 h.

The source of these data is article PMC8537277 (Pharmaceuticals, 2021).

Like-named read-outs stand apart in the source and are kept apart here. Where a SMILES comes first, the peptide text is derived from it.

With `CC(=O)N[C@@H](CO)C(=O)N[C@@H](CCCCN)C(=O)N[C@@H](Cc1c[nH]cn1)C(=O)N[C@@H](CO)C(N)=O` [Peptide 1, Ac-SKHS-NH2] (Ac-SKHS-NH2), the IC50 in experiment [1] is 1.5 nM.
In the case of `CC(=O)N[C@@H](CO)C(=O)N[C@@H](CC(C)C)C(=O)N[C@@H](CC(=O)O)C(=O)N[C@@H](CS)C(N)=O` [Peptide 2, Ac-SLDC-NH2] (Ac-SLDC-NH2), the IC50 in experiment [1] was 6 nM.
Take `CC(=O)N[C@@H](CO)C(=O)N[C@@H](C)C(=O)N[C@@H](Cc1c[nH]cn1)C(=O)N[C@@H](CO)C(N)=O` [Peptide 4, Ac-SAHS-NH2] (Ac-SAHS-NH2): in experiment [2] (read-out: HI Titer (IC50) A/Parma/24/09 H1N1, 50% inhibition of virus-induced hemagglutination, N.D. = not detectable at maximum tested concentration 12.5 × 10^3 nM), the IC50 was 500 pM.
In experiment [2] (setting [3]), `CC(=O)N[C@@H](CO)C(=O)N[C@@H](CCCCN)C(=O)N[C@@H](C)C(=O)N[C@@H](CO)C(N)=O` [Peptide 5] (Ac-SKAS-NH2) yielded an IC50 of 2.9 pM.
Same read-out and setting: with `CC(=O)N[C@@H](CO)C(=O)N[C@@H](C)C(=O)N[C@@H](CC(=O)O)C(=O)N[C@@H](CS)C(N)=O` [Peptide 8] (Ac-SADC-NH2) the figure was 0.0022 pM; with `CC(=O)N[C@@H](CO)C(=O)N[C@@H](CC(C)C)C(=O)N[C@@H](CC(=O)O)C(=O)N[C@@H](C)C(N)=O` [Peptide 10] (Ac-SLDA-NH2), 6100 pM.
